Experimental findings from patent US12503438B2, “Compounds for the treatment of kinase-dependent disorders” (Exelixis, Inc., priority 2019, dated 2025) are described below.

Some results are limits rather than exact numbers.

The test addresses T1, Mer (Homo sapiens, UniProt Q12866).
T1 construct: host or cells: 293A cells (Thermo Fisher #R70507)
T1 sequence (Q12866 21-999): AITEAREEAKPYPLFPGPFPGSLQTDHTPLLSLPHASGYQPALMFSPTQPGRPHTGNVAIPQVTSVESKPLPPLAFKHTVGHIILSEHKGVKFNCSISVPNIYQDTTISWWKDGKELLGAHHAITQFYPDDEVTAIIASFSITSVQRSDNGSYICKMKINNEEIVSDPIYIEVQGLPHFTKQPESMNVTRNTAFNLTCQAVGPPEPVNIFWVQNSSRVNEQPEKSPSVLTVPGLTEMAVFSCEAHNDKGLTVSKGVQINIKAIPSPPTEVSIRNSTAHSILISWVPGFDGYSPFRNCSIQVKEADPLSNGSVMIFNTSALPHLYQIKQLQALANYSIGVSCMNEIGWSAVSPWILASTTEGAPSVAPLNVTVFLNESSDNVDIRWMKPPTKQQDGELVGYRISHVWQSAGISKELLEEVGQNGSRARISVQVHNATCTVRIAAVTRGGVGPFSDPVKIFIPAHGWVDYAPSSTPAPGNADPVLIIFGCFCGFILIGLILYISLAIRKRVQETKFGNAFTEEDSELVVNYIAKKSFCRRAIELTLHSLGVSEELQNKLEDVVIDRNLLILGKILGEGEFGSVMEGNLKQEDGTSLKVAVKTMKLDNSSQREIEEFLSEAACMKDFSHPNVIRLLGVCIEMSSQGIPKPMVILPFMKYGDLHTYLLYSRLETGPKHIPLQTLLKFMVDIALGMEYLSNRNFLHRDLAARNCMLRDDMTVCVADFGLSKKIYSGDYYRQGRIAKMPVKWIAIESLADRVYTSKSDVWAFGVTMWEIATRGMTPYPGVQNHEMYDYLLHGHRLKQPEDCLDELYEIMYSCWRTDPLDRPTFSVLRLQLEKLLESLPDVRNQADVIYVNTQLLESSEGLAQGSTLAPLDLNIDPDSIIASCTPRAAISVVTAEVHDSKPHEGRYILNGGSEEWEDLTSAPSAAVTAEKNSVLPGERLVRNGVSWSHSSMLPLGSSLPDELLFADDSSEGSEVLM
Kind of test: Mer autophosphorylation ELISA in transient transfected 293A cells. Conditions: cellular activity; MERTK-transfected 293A cells, phospho-Mer ELISA. The test is classed as cell-based. The essentials:
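293A cells transiently transfected with human MERTK DNA, then treated 1 h with 8-point compound dilutions in serum-free medium (0.3% DMSO). Phospho-Mer in lysates quantified by sandwich ELISA against phospho-Mer standard; normalised to DMSO (100%) and reference inhibitor (0%), IC50 from 4-parameter logistic fit.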
For the compound `Cn1cc(-c2ccc3c(Oc4ccc(NC(=O)C5(C(=O)N6CCc7cc(F)ccc76)CC5)cc4)ccnc3c2)cn1` [Compound 81, 1-(5-Fluoro-2,3-dihydroindole-1-carbonyl)-N-[4-[7-(1-methylpyrazol-4-yl)quinolin-4-yl]oxyphenyl]cyclopropane-1-carboxamide], the IC50 lay in the range of 100 to 300 nM.

Take `O=C(Nc1ccc(F)cc1)C1(C(=O)Nc2ccc(Oc3ccnc4cc(-c5ccncn5)ccc34)cc2)CC1` [Compound 114, 1-N′-(4-Fluorophenyl)-1-N-[4-(7-pyrimidin-4-ylquinolin-4-yl)oxyphenyl]cyclopropane-1,1-dicarboxamide]: the IC50 was in the range of 10 to 100 nM.

Take `O=C(Nc1ccc(F)cc1)C1(C(=O)Nc2ccc(Oc3ccnc4cc(-c5cnn(CC(F)F)c5)ccc34)cc2)CC1` [Compound 15, 1-N-[4-[7-[1-(2,2-Difluoroethyl)pyrazol-4-yl]quinolin-4-yl]oxyphenyl]-1-N′-(4-fluorophenyl)cyclopropane-1,1-dicarboxamide]: the concentration for half-maximal inhibition (IC50) was at most 10 nM.

As for `O=C(Nc1ccc(F)cc1)C1(C(=O)Nc2ccc(Oc3ccnc4cc(-c5cc6n(n5)CCC6)ccc34)cc2)CC1` [Compound 124, 1-N-[4-[7-(5,6-Dihydro-4H-pyrrolo[1,2-b]pyrazol-2-yl)quinolin-4-yl]oxyphenyl]-1-N′-(4-fluorophenyl)cyclopropane-1,1-dicarboxamide], the IC50 was in the range of 10 to 100 nM.

For `O=C(Nc1ccc(F)cc1)C1(C(=O)Nc2ccc(Oc3ccnc4cc(-c5ccnc(F)c5)ccc34)cc2)CC1` [Compound 33, 1-N′-(4-Fluorophenyl)-1-N-[4-[7-(2-fluoropyridin-4-yl)quinolin-4-yl]oxyphenyl]cyclopropane-1,1-dicarboxamide], the IC50 was in the range of 10 to 100 nM.

Compound `Cn1nccc1-c1ccc2c(Oc3ccc(NC(=O)C4(C(=O)Nc5ccc(F)cc5)CC4)cc3)ccnc2c1` [Compound 54, 1-N′-(4-Fluorophenyl)-1-N-[4-[7-(2-methylpyrazol-3-yl)quinolin-4-yl]oxyphenyl]cyclopropane-1,1-dicarboxamide] showed an IC50 of 10 to 100 nM.

In the case of `O=C(Nc1ccc(F)cc1)C1(C(=O)Nc2ccc(Oc3ccnc4cc(-c5cncc(F)c5)ccc34)cc2)CC1` [Compound 45, 1-N′-(4-Fluorophenyl)-1-N-[4-[7-(5-fluoropyridin-3-yl)quinolin-4-yl]oxyphenyl]cyclopropane-1,1-dicarboxamide], the half-inhibitory concentration (IC50) fell in the range of 10 to 100 nM.

`O=C(Nc1ccc(F)cc1)C1(C(=O)Nc2ccc(Oc3ccnc4cc(-c5cnn(C6CCNCC6)c5)ccc34)cc2)CC1` [Compound 60, 1-N′-(4-Fluorophenyl)-1-N-[4-[7-(1-piperidin-4-ylpyrazol-4-yl)quinolin-4-yl]oxyphenyl]cyclopropane-1,1-dicarboxamide] returned an IC50 of 10 to 100 nM.

The compound `Nc1ccc(-c2ccc3c(Oc4ccc(NC(=O)C5(C(=O)Nc6ccc(F)cc6)CC5)cc4)ccnc3c2)cn1` [Compound 38, 1-N-[4-[7-(6-Aminopyridin-3-yl)quinolin-4-yl]oxyphenyl]-1-N′-(4-fluorophenyl)cyclopropane-1,1-dicarboxamide] came in with an IC50 of 10 to 100 nM.

On to `COc1cncc(-c2ccc3c(Oc4ccc(NC(=O)C5(C(=O)Nc6ccc(F)cc6)CC5)cc4)ccnc3c2)c1` [Compound 47, 1-N′-(4-Fluorophenyl)-1-N-[4-[7-(5-methoxypyridin-3-yl)quinolin-4-yl]oxyphenyl]cyclopropane-1,1-dicarboxamide], for which the IC50 was in the range of 10 to 100 nM.

`Cn1ncc(-c2ccc3c(Oc4ccc(NC(=O)C5(C(=O)Nc6ccc(F)cc6)CC5)cc4)ccnc3c2)n1` [Compound 86, 1-N′-(4-Fluorophenyl)-1-N-[4-[7-(2-methyltriazol-4-yl)quinolin-4-yl]oxyphenyl]cyclopropane-1,1-dicarboxamide] had an IC50 of 10 to 100 nM.
